According to US7999009B2, “Strontium salts of sulphonic acids, a process for their preparation and pharmaceutical compositions containing them” (Les Laboratoires Servier, priority 2006, dated 2011):

Legend:
[1] = tested on: fragments of bovine cartilage; assay: Alamar blue toxicity test in the bovine cartilage culture; type: cell-based; conditions: 21 days of cultivation, whatever the dose (0.01-10 mM)
Description: (§1) The duration of the cultivation period is 21 days (culture medium changed every 2 days). A group not treated with TNFα and oncostatin M constitutes the control group. Five lots of stimulated cartilage fragments were treated with the compound of Example 1, each at a different dose: 0.01; 0.1; 1; 3 and 10 mM. 5 replications were carried out for each dose.
The treatment is moreover well tolerated by the cells for the 21 days of cultivation (toxicity test employed: Alamar blue—negative whatever the dose).

[2] = tested on: fragments of bovine cartilage; assay: In vitro inhibition of bovine cartilage catabolism (cartilage fragments stimulated with TNFα and oncostatin M, 21 days); type: cell-based; conditions: for percentage inhibition of the degradation of the proteins in the cartilage: D21; for percentage inhibition of the degradation of the GAGs: D21, DMB technique
Description: The study was carried out on fragments of bovine cartilage in culture medium (96-well plate), the degradation of which is stimulated by adding TNFα and oncostatin M (Schaller, S., Henriksen, K., Hoegh-Andersen, P., Sondergaard, B. C., Sumer, E. U., Tanko, L. B., Qvist, P., Karsdal, M. A. In vitro, ex vivo, and in vivo methodological approaches for studying therapeutic targets of osteoporosis and degenerative joint diseases: how biomarkers can assist? Assay. Drug Dev. Technol. 3, 553-580 (2005).
as §1
On D19, the concentration of CTX II (fragment of type II collagen resulting from the degradation of that collagen by metalloproteases) in the culture medium is measured using an ELISA technique. That parameter is expressed in ng/ml/mg of cartilage.
On D21, the following are measured in the cartilage remaining at the end of cultivation: • the quantity of proteins, using the kit marketed by Biorad. For the groups treated with the compound of Example 1, the results of this parameter are expressed as the percentage inhibition of the degradation of the proteins in the cartilage of the untreated control group; • and the quantity of glycosaminoglycans (GAGs), using the […] (DMB). That parameter, too, is expressed as a percentage inhibition of the degradation of the GAGs evaluated in the control group after culturing for 21 days. Results

In the case of `O=S(=O)([O-])CCCS(=O)(=O)[O-].[Sr+2]` [Example 1, Strontium 1,3-propanedisulphonate], the “toxicity test Alamar blue (tolerance by the cells)” value [1] is reported as “negative”, the IC50 ([2]; D19, ELISA, TNFα + oncostatin M stimulated cartilage, significant (p<0.001), dose-dependent, read-out: inhibition of the salting out of CTX II in the culture medium (IC50)) is reported as 3.5 mM and the “percentage inhibition of the degradation of the proteins in the cartilage” value (“percentage inhibition … in the cartilage” for short) ([2]; dose 1 mM) is reported as 22%. For the same molecule, the “percentage inhibition of the degradation of the GAGs” value (shortened to “percentage inhibition … of the GAGs”) ([2]; dose 1 mM) was 4%, the “percentage inhibition … in the cartilage” value ([2]; dose 3 mM) was 41% and the “percentage inhibition … of the GAGs” value ([2]; dose 3 mM) was 8%. For the same molecule, the “percentage inhibition … of the GAGs” value ([2]; dose 10 mM, **p < 0.01) was 26%** and the “percentage inhibition … in the cartilage” value ([2]; dose 10 mM, *p < 0.05) was 55%*.
